Laboratory results: PubChem BioAssay (NCI)
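Results reflect a 48-hour exposure of cells in 96-well plates to compound at five concentrations. Here, GI50 denotes the concentration required for 50% inhibition of growth. TGI marks complete inhibition of growth.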

Key:
Experiment in all cases: growth of human tumour cells (NCI), 48 h
MALME-3M melanoma = system: MALME-3M melanoma
COLO 205 colon = system: COLO 205 colon
HOP-62 NSCLC = system: HOP-62 NSCLC
NCI-H226 lung = system: NCI-H226 lung
RXF 393 renal = system: RXF 393 renal
CCRF-CEM leukemia = system: CCRF-CEM leukemia
OVCAR-5 ovarian = system: OVCAR-5 ovarian
U251 CNS = system: U251 CNS
A549 NSCLC = system: A549 NSCLC
TK-10 renal = system: TK-10 renal
M14 melanoma = system: M14 melanoma
EKVX NSCLC = system: EKVX NSCLC
SW-620 colon = system: SW-620 colon
ACHN renal = system: ACHN renal
OVCAR-3 ovarian = system: OVCAR-3 ovarian
IGROV1 ovarian = system: IGROV1 ovarian
SK-OV-3 ovarian = system: SK-OV-3 ovarian
T-47D breast = system: T-47D breast
SNB-75 CNS = system: SNB-75 CNS
SF-295 CNS = system: SF-295 CNS
HS 578T breast = system: HS 578T breast
KM12 colon = system: KM12 colon
MOLT-4 leukemia = system: MOLT-4 leukemia
NCI-H522 lung = system: NCI-H522 lung
SN12C renal = system: SN12C renal
SK-MEL-2 melanoma = system: SK-MEL-2 melanoma
SNB-19 CNS = system: SNB-19 CNS
UACC-62 melanoma = system: UACC-62 melanoma
SK-MEL-28 melanoma = system: SK-MEL-28 melanoma
UACC-257 melanoma = system: UACC-257 melanoma
RPMI-8226 leukemia = system: RPMI-8226 leukemia
HOP-92 NSCLC = system: HOP-92 NSCLC
UO-31 renal = system: UO-31 renal
MDA-MB-231 breast = system: MDA-MB-231 breast
786-0 renal = system: 786-0 renal
MDA-MB-468 breast = system: MDA-MB-468 breast
MCF7 breast = system: MCF7 breast
DU-145 prostate = system: DU-145 prostate
CAKI-1 renal = system: CAKI-1 renal
SF-539 CNS = system: SF-539 CNS
NCI/ADR-RES ovarian = system: NCI/ADR-RES ovarian
HT29 colon = system: HT29 colon
NCI-H460 lung = system: NCI-H460 lung
SK-MEL-5 melanoma = system: SK-MEL-5 melanoma
SF-268 CNS = system: SF-268 CNS
HCT-15 colon = system: HCT-15 colon
LOX IMVI melanoma = system: LOX IMVI melanoma
OVCAR-4 ovarian = system: OVCAR-4 ovarian
A498 renal = system: A498 renal
BT-549 breast = system: BT-549 breast
MDA-MB-435 = system: MDA-MB-435
HCT-116 colon = system: HCT-116 colon
OVCAR-8 ovarian = system: OVCAR-8 ovarian
SR leukemia = system: SR leukemia
PC-3 prostate = system: PC-3 prostate
NCI-H23 lung = system: NCI-H23 lung
HL-60(TB) leukemia = system: HL-60(TB) leukemia
HCC-2998 colon = system: HCC-2998 colon
K-562 leukemia = system: K-562 leukemia

## OC(c1ccccc1)(c1ccccc1)C1CCN(c2ccc3nnc(Cl)n3n2)CC1
MALME-3M melanoma
  GI50: 19.5 µM
  TGI: 33.9 µM
COLO 205 colon
  GI50: 18.3 µM
  TGI: 46.2 µM
HOP-62 NSCLC
  GI50: 44 µM
  TGI: > 100 µM
NCI-H226 lung
  GI50: 14.5 µM
  TGI: 38.9 µM
RXF 393 renal
  GI50: 14.5 µM
  TGI: 29.4 µM
CCRF-CEM leukemia
  GI50: 12.8 µM
  TGI: > 100 µM
OVCAR-5 ovarian
  GI50: 17.5 µM
  TGI: 45.2 µM
U251 CNS
  GI50: 18 µM
  TGI: 39.6 µM
A549 NSCLC
  GI50: 18 µM
  TGI: > 100 µM
TK-10 renal
  GI50: 22.9 µM
  TGI: 62.5 µM
M14 melanoma
  GI50: 17.4 µM
  TGI: 34.9 µM
EKVX NSCLC
  GI50: 15.5 µM
  TGI: 54.3 µM
SW-620 colon
  GI50: 25 µM
  TGI: 67.8 µM
ACHN renal
  GI50: 14.2 µM
  TGI: 44.8 µM
OVCAR-3 ovarian
  GI50: 21.1 µM
  TGI: 65.7 µM
IGROV1 ovarian
  GI50: 16.4 µM
  TGI: 41.9 µM
SK-OV-3 ovarian
  GI50: 42.1 µM
  TGI: > 100 µM
T-47D breast
  GI50: 20.6 µM
  TGI: > 100 µM
SNB-75 CNS
  GI50: 14.6 µM
  TGI: 36.9 µM
SF-295 CNS
  GI50: 17 µM
  TGI: 54.1 µM
HS 578T breast
  GI50: 22 µM
  TGI: 53.2 µM
KM12 colon
  GI50: 16.2 µM
  TGI: 42.5 µM
MOLT-4 leukemia
  GI50: 4.18 µM
  TGI: 31.6 µM
NCI-H522 lung
  GI50: 15.6 µM
  TGI: 49.1 µM
SN12C renal
  GI50: 17.5 µM
  TGI: 40 µM
SK-MEL-2 melanoma
  GI50: 16.5 µM
  TGI: 32.8 µM
SNB-19 CNS
  GI50: 36.3 µM
  TGI: > 100 µM
UACC-62 melanoma
  GI50: 14.6 µM
  TGI: 30.4 µM
SK-MEL-28 melanoma
  GI50: 18.3 µM
  TGI: 43 µM
UACC-257 melanoma
  GI50: 18.5 µM
  TGI: 37.9 µM
RPMI-8226 leukemia
  GI50: 9.29 µM
  TGI: 50.8 µM
HOP-92 NSCLC
  GI50: 10.8 µM
  TGI: 29 µM
UO-31 renal
  GI50: 11 µM
  TGI: 29.1 µM
MDA-MB-231 breast
  GI50: 15.4 µM
  TGI: 30.4 µM
786-0 renal
  GI50: 25 µM
  TGI: 71.8 µM
MDA-MB-468 breast
  GI50: 13 µM
  TGI: 35.4 µM
MCF7 breast
  GI50: 16.2 µM
  TGI: 44.2 µM
DU-145 prostate
  GI50: 24 µM
  TGI: > 100 µM
CAKI-1 renal
  GI50: 15.6 µM
  TGI: 81.3 µM
SF-539 CNS
  GI50: 17.2 µM
  TGI: 38.7 µM
NCI/ADR-RES ovarian
  GI50: 18 µM
  TGI: 63.3 µM
HT29 colon
  GI50: 16.9 µM
  TGI: 36.4 µM
NCI-H460 lung
  GI50: 14.1 µM
  TGI: 32.6 µM
SK-MEL-5 melanoma
  GI50: 13.7 µM
  TGI: 26.6 µM
SF-268 CNS
  GI50: 26.3 µM
  TGI: > 100 µM
HCT-15 colon
  GI50: 15.7 µM
  TGI: 54.2 µM
LOX IMVI melanoma
  GI50: 15.3 µM
  TGI: 29 µM
OVCAR-4 ovarian
  GI50: 23.2 µM
  TGI: > 100 µM
A498 renal
  GI50: 16.8 µM
  TGI: 32.6 µM
BT-549 breast
  GI50: 13.9 µM
  TGI: 29.8 µM
MDA-MB-435
  GI50: 19.5 µM
  TGI: 43.3 µM
HCT-116 colon
  GI50: 14.1 µM
  TGI: 39.1 µM
OVCAR-8 ovarian
  GI50: 25.7 µM
  TGI: 76.9 µM
SR leukemia
  GI50: 10.9 µM
  TGI: 47.5 µM
PC-3 prostate
  GI50: 8.75 µM
  TGI: 62.2 µM
NCI-H23 lung
  GI50: 16.8 µM
  TGI: 37.3 µM
HL-60(TB) leukemia
  GI50: 12.7 µM
  TGI: 42.9 µM
HCC-2998 colon
  GI50: 15.5 µM
  TGI: 29.9 µM
K-562 leukemia
  GI50: 14 µM
  TGI: > 100 µM

## C=CC[Se]C(=O)c1ccc(C(=O)[Se]CC=C)s1
MALME-3M melanoma
  GI50: 0.67 µM
  TGI: 2.35 µM
COLO 205 colon
  GI50: 1.4 µM
  TGI: 4.03 µM
HOP-62 NSCLC
  GI50: 0.152 µM
  TGI: 1.45 µM
NCI-H226 lung
  GI50: 0.794 µM
  TGI: 2.71 µM
RXF 393 renal
  GI50: 0.696 µM
  TGI: 1.64 µM
CCRF-CEM leukemia
  GI50: 0.428 µM
  TGI: > 21.8 µM
OVCAR-5 ovarian
  GI50: 0.382 µM
  TGI: 1.01 µM
U251 CNS
  GI50: 0.505 µM
  TGI: 1.87 µM
A549 NSCLC
  GI50: 0.313 µM
  TGI: > 27.5 µM
TK-10 renal
  GI50: 1.05 µM
  TGI: 7.56 µM
M14 melanoma
  GI50: 0.387 µM
  TGI: 1.57 µM
EKVX NSCLC
  GI50: 0.623 µM
  TGI: 1.63 µM
SW-620 colon
  GI50: 0.8 µM
  TGI: 2.14 µM
ACHN renal
  GI50: 0.942 µM
  TGI: 4.37 µM
OVCAR-3 ovarian
  GI50: 0.655 µM
  TGI: 1.62 µM
IGROV1 ovarian
  GI50: 0.277 µM
  TGI: 0.727 µM
SK-OV-3 ovarian
  GI50: 0.224 µM
  TGI: 0.546 µM
T-47D breast
  GI50: 0.265 µM
  TGI: 0.962 µM
SNB-75 CNS
  GI50: 0.215 µM
  TGI: 0.577 µM
SF-295 CNS
  GI50: 0.0552 µM
  TGI: 0.317 µM
HS 578T breast
  GI50: 0.294 µM
  TGI: 1.89 µM
KM12 colon
  GI50: 0.284 µM
  TGI: 0.928 µM
MOLT-4 leukemia
  GI50: 0.992 µM
  TGI: 5.6 µM
NCI-H522 lung
  GI50: 0.524 µM
  TGI: 1.04 µM
SN12C renal
  GI50: 0.348 µM
  TGI: 1.11 µM
SK-MEL-2 melanoma
  GI50: 1.26 µM
  TGI: 3.17 µM
SNB-19 CNS
  GI50: 0.289 µM
  TGI: 1.26 µM
UACC-62 melanoma
  GI50: 0.482 µM
  TGI: 1.39 µM
SK-MEL-28 melanoma
  GI50: 0.666 µM
  TGI: 1.85 µM
UACC-257 melanoma
  GI50: 0.721 µM
  TGI: 2.08 µM
RPMI-8226 leukemia
  GI50: 0.375 µM
  TGI: 2.43 µM
HOP-92 NSCLC
  GI50: 0.92 µM
  TGI: 7.65 µM
UO-31 renal
  GI50: 0.515 µM
  TGI: 1.09 µM
MDA-MB-231 breast
  GI50: 0.676 µM
  TGI: 6.41 µM
786-0 renal
  GI50: 0.314 µM
  TGI: 1.16 µM
MDA-MB-468 breast
  GI50: 0.657 µM
  TGI: 1.62 µM
MCF7 breast
  GI50: 0.565 µM
  TGI: 1.84 µM
DU-145 prostate
  GI50: 0.68 µM
  TGI: 6.4 µM
CAKI-1 renal
  GI50: 0.81 µM
  TGI: 9.76 µM
SF-539 CNS
  GI50: 0.307 µM
  TGI: 0.852 µM
NCI/ADR-RES ovarian
  GI50: 0.261 µM
  TGI: 0.661 µM
HT29 colon
  GI50: 0.887 µM
  TGI: > 31.5 µM
NCI-H460 lung
  GI50: 0.289 µM
  TGI: 1.61 µM
SK-MEL-5 melanoma
  GI50: 1.49 µM
  TGI: 3.35 µM
SF-268 CNS
  GI50: 0.768 µM
  TGI: 4.83 µM
HCT-15 colon
  GI50: 0.765 µM
  TGI: 2.15 µM
LOX IMVI melanoma
  GI50: 0.721 µM
  TGI: 2 µM
OVCAR-4 ovarian
  GI50: 0.948 µM
  TGI: 2.5 µM
A498 renal
  GI50: 2.82 µM
  TGI: 66.9 µM
BT-549 breast
  GI50: 0.324 µM
  TGI: 1.3 µM
MDA-MB-435
  GI50: 0.691 µM
  TGI: 2.06 µM
HCT-116 colon
  GI50: 0.327 µM
  TGI: 1.23 µM
OVCAR-8 ovarian
  GI50: 0.345 µM
  TGI: 1.09 µM
SR leukemia
  GI50: 0.603 µM
  TGI: 2.21 µM
PC-3 prostate
  GI50: 0.286 µM
  TGI: 1.29 µM
NCI-H23 lung
  GI50: 0.313 µM
  TGI: 1.03 µM
HL-60(TB) leukemia
  GI50: 0.581 µM
  TGI: 2.58 µM
HCC-2998 colon
  GI50: 0.313 µM
  TGI: 1 µM
K-562 leukemia
  GI50: 2.1 µM
  TGI: > 23 µM
